This data set in a line: HPLC determination of degradation products in particles after SEDS processing. In kind it is physicochemical. On the procedure: High-Perfomance Liquid Chromatography (HPLC)
Identification and quantification of degradation products were determined using HPLC technique.
The amount of degradation products was calculated from the chromatograms as area-%. Thus, 0.2% area-procent means that the amount of degradation products was 0.2% of the initial weight of the substance.
Particles were prepared in a modified SEDS equipment (Bradford Particle Design Limited, UK) from a solution, containing substance(s).
The solution and the antisolvent were introduced into a coaxial nozzle, which was located inside a pressure vessel. Under controlled pressure and temperature conditions, the antisolvent extracts the solvent from the solution droplets. The concentration of the solute in the droplets is thereby increased, leading to rapid particle formation. The particles were collected in a vessel, while the antisolvent and the extracted solvent emerged through a back pressure regulator.
The nozzle used was a two component nozzle, with an opening of 0.2 mm in diameter. In the two component nozzle the supercritical fluid passes through the inner passage, while the solution passes through the outer passage.
On to `COc1ccc2[n-]c([S+]([O-])Cc3ncc(C)c(OC)c3C)nc2c1.COc1ccc2[n-]c([S+]([O-])Cc3ncc(C)c(OC)c3C)nc2c1.[Mg+2]` (stereo not shown) [Experiment 1-3a, Omeprazole magnesium], for which the Degradation products worked out at 0.4 a % and the “degradation products (HPLC)” value is 0.4 area %.

In the case of `COc1ccc2[n-]c([S+]([O-])Cc3ncc(C)c(OC)c3C)nc2c1.COc1ccc2[n-]c([S+]([O-])Cc3ncc(C)c(OC)c3C)nc2c1.[Mg+2]` (stereo not shown) [Experiment 1-1b, Omeprazole magnesium], the Degradation products is reported as 0.2 a % and the “degradation products (HPLC)” value is recorded as 0.2 area %.

Turning to `COc1ccc2[n-]c([S@@+]([O-])Cc3ncc(C)c(OC)c3C)nc2c1.COc1ccc2[n-]c([S@@+]([O-])Cc3ncc(C)c(OC)c3C)nc2c1.[Mg+2]` [Experiment 2-1b, (S)-omeprazole magnesium], the Degradation products is 0.3 a % and the “degradation products (HPLC)” value is 0.3 area %.

As to `COc1ccc2[n-]c([S+]([O-])Cc3ncc(C)c(OC)c3C)nc2c1.COc1ccc2[n-]c([S+]([O-])Cc3ncc(C)c(OC)c3C)nc2c1.[Mg+2]` (stereo not shown) [Experiment 1-4b, Omeprazole magnesium], the Degradation products was 0.1 a % and the “degradation products (HPLC)” value is given as 0.1 area %.

Regarding `COc1ccc2[n-]c([S+]([O-])Cc3ncc(C)c(OC)c3C)nc2c1.COc1ccc2[n-]c([S+]([O-])Cc3ncc(C)c(OC)c3C)nc2c1.[Mg+2]` (stereo not shown) [Experiment 1-2b, Omeprazole magnesium], the Degradation products was found to be 0.2 a % and the “degradation products (HPLC)” value was found to be 0.2 area %.

Turning to `COc1ccc2[n-]c([S@@+]([O-])Cc3ncc(C)c(OC)c3C)nc2c1.COc1ccc2[n-]c([S@@+]([O-])Cc3ncc(C)c(OC)c3C)nc2c1.[Mg+2]` [Experiment 2-1a, (S)-omeprazole magnesium], the Degradation products came to 2.1 a % and the “degradation products (HPLC)” value amounted to 2.1 area %.

As to `COc1ccc2[n-]c([S+]([O-])Cc3ncc(C)c(OC)c3C)nc2c1.COc1ccc2[n-]c([S+]([O-])Cc3ncc(C)c(OC)c3C)nc2c1.[Mg+2]` (stereo not shown) [Experiment 1-3b, Omeprazole magnesium], the Degradation products is 0.2 a % and the “degradation products (HPLC)” value was 0.2 area %.

For the molecule `COc1ccc2[n-]c([S+]([O-])Cc3ncc(C)c(OC)c3C)nc2c1.COc1ccc2[n-]c([S+]([O-])Cc3ncc(C)c(OC)c3C)nc2c1.[Mg+2]` (stereo not shown) [Experiment 1-1a, Omeprazole magnesium], the Degradation products is listed as 0.5 a % and the “degradation products (HPLC)” value came out at 0.5 area %.

The values above are taken from patent US6596315B1, “Method of producing drug particles” (AstraZeneca AB, priority 1998, dated 2003).
